Source: patent US9421203B2, “Sensitization of cancer cells to DNA damage by inhibiting kinases essential for DNA damage checkpoint control” (Institute for Cancer Research, priority 2012, dated 2016)
Entries after “also recorded” stand apart in the source; their conditions may differ.

Legend:
[1] = tested on: PANC1 cells; assay: cells; type: cell-based; conditions: for viability of gemcitabine treated PANC1 cells: gemcitabine 10 nM 24 h, then inhibitor 1 μM for 48 h (FIG. 1A)
Experimental: FIGS. 7A-7D show the viability of PANC1 cells treated with increasing concentrations of (FIG. 7A) doxorubicin or (FIG. 7B) cisplatin (24 h) before the addition of UCN-01 (100 nM) or Bos-I (1000 nM) for a further 48 hours.
Identification of clinically relevant kinase inhibitors that sensitize cells to gemcitabine. In the experiments described in this Example, the general protocol was to treat pancreatic cancer cell line (Panc-1) with a dose of gemcitabine that induces DNA damage and arrests cell cycle progression. A panel of nine different clinically relevant kinase inhibitors (FIG. 1A) were added to gemcitabine treated cells, and were assessed for their ability to enhance killing of pancreatic cancer cells to gemcitabine. PANC1 cells were treated with a sub-lethal (IC20) concentration of gemcitabine (10 nM) for 24 hours (a time and concentration sufficient to induce DNA damage and S phase arrest) and kinase inhibitors (all at 1 μM final) were added for another 48 h before cell viability was measured. UCN-01, a Chk1 inhibitor that is established as a sensitizer of gemcitabine was included as a positive control.

[2] = tested on: EGF-1 cells; assay: Immunofluorescence of checkpoint override in patient-derived pancreatic cancer cell line EGF-1; type: cell-based; conditions: arrest imposed by either gemcitabine or doxorubicin
Source text: Quantification of the percentage of cells that enter mitosis/override the checkpoint after treatment with either gemcitabine or doxorubicin is shown (right panel).
Tumor cells were isolated under an IRB-approved protocol and passaged as xenografts in mice. EGF-1 is a cell line that was derived from F1 tumors and used for in vitro studies.

[3] = tested on: Ba/F3 cells expressing the Bcr-Abl mutant (T3151); assay: Viability of Ba/F3 cells expressing Bcr-Abl mutant with bendamustine; type: cell-based; conditions: Bos-I 1000 nM (FIG. 9B)
Experimental: (§1) FIGS. 9A and 9B show the viability of Ba/F3 cells either expressing (FIG. 9A) the Bcr-Abl wild-type (WT) or (FIG. 9B) the Bcr-Abl mutant (T3151) kinases (lower) treated with increasing concentrations of bendamustine alone or with the addition of Bos-1 (1000 nM).
(§2) It is believed that inhibitors of Src and Abl tyrosine kinases may be effective as a single agent in the treatment of CML (Chronic myelogenous leukemia) where it contains a specific chromosome translocation that fuses the Abl kinase to the Bcr gene. Inhibitors of the Bcr/Abl fusion kinase, such as imatinib and bostunib (Formula I), are effective in the treatment of CML, but resistance (at least for imatinib) invariably occurs. Resistance to imatinib occurs most often as a result of mutations at the gatekeeper position (Threonine 315) within the Abl kinase domain. Such mutants no longer respond to inhibitors such as imatinib. […] (FIG. 9A and FIG. 9B). It is believed that the activity of Bosutinib-isomer against wild type and T3151 mutant is likely mediated through its off-target effects against the DNA damage checkpoint kinases, Wee1 and Chk1.

[4] = tested on: Tyr15 phosphorylation of Cdc2; assay: Tyr15 phosphorylation of Cdc2 in gemcitabine treated PANC1 cells; type: cell-based; conditions: PANC1 cells treated with gemcitabine
Source text: Inhibition of Tyr15 phosphorylation was not observed for dasatnib, which is fully consistent with its in vitro kinase profile, and its inability to override the DNA damage checkpoint.

[5] = biological target: Wee 1 (Homo sapiens, UniProt P30291); assay: IC50 / kinase assay toward recombinant Wee1 (MBP or Cdc2 substrate); type: biochemical; conditions: Cdc2 as substrate; data not shown
[6] = tested on: Ba/F3 cells expressing the Bcr-Abl wild-type (WT); assay: Viability of Ba/F3 cells expressing Bcr-Abl wild-type with bendamustine; type: cell-based; conditions: Bos-I 1000 nM (FIG. 9A)
Experimental: as §1, §2

[7] = tested on: PANC1 cells; assay: Time-lapse video-microscopy of checkpoint override (premature mitosis) in PANC1 cells; type: cell-based; conditions: gemcitabine 24 h, then inhibitor 1 μM (UCN-01 100 nM), time-lapse 24 hours
Experimental: PANC1 cells were treated with gemcitabine for 24 hours before the addition of kinase inhibitors (1 μM), and filming commenced thereafter.
Time-lapse video microscopy was used to document the fates of cells treated with gemcitabine with and without the Chk1 inhibitor, UCN-01 (FIG. 3).

[8] = tested on: PANC1 cells; assay: Clonogenic survival assay in PANC1 cells; type: cell-based; conditions: gemcitabine 10 nM 24 h
Experimental: Surviving colonies were determined 10 days later. […] After this time all drugs were removed and cells were plated to determine their efficiency of colony formation after 10 days.

[9] = tested on: 300 recombinant human protein kinases; conditions: of 300 recombinant human kinases; database / Anastassiadis 2011; cited from earlier work
[10] = tested on: PANC1 cells; assay: Immunofluorescence of mitotic figures in gemcitabine-arrested cells; type: cell-based; conditions: UCN-01 100 nM or Bos-I 1000 nM (FIG. 4)
Source text: Shown are representative images of cells from each treatment.
The mitotic figures of cells forced into mitosis by the newly identified sensitizers were examined to determine how they compared to checkpoint override by UCN-01. […] The defects include two lobes of chromatin that lie outside of the spindle, with the detached kinetochores lying within the spindle.
It was observed that overriding the gemcitabine induced S phase checkpoint arrest with Chk1 inhibitors (UCN-01) results in a discrete and reproducible mitotic defect called MUGs (mitotically unreplicated genomes). The defining feature of MUGs is the unreplicated centromeres in the genome are physically detached from the chromosome mass (FIG. 4).

[11] = tested on: Mia-PaCa-II cells; assay: Mia-PaCa-II cell viability after gemcitabine followed by authentic bosutinib; type: cell-based; conditions: authentic bosutinib at 2.5 μM and 5 μM (FIG. 7D)
[12] = tested on: PANC1 cells; type: cell-based; conditions: for sensitization of PANC1 cells to gemcitabine: increasing gemcitabine 24 h, then UCN-01 100 nM, bosutinib or sunitinib 1 μM for 48 h (FIG. 1B)

Chain of Wee 1 (P30291 whole entry): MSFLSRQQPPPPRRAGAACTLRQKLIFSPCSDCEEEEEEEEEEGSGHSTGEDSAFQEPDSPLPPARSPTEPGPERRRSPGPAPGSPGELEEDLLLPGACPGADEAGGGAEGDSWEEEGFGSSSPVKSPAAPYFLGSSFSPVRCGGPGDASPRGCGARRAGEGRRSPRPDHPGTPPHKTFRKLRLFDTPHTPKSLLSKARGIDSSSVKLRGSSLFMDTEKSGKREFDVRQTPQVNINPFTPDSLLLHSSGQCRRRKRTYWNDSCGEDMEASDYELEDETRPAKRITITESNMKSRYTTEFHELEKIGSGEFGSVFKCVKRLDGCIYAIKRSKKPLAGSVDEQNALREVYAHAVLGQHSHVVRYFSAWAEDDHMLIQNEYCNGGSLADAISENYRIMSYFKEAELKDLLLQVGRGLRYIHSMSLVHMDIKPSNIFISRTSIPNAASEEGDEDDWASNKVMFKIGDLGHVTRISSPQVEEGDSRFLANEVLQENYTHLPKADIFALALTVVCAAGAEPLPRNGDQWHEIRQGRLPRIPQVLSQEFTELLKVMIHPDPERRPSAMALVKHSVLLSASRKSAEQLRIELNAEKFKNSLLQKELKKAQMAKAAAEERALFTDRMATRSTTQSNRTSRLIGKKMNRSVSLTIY

Compound: Cn1c(=O)n(-c2ccc(C(C)(C)C#N)cc2)c2c3cc(-c4cnc5ccccc5c4)ccc3ncc21 [BEZ-235]
- viability of gemcitabine treated PANC1 cells [1]: significantly reduced viability of cells treated with gemcitabine

Compound: COc1cc2c(Nc3cc(Cl)c(OC)c(Cl)c3)c(C#N)cnc2cc1OCCCN1CCN(C)CC1 [Bosutinib isomer, Bosutinib-I]
- premature entry into mitosis / checkpoint override in EGF-1 cells [2]: able to prematurely enter mitosis after overriding checkpoint arrests
- killing of cells in combination with Bendamustine [3]: enhanced killing of cells
- Tyr15 phosphorylation of Cdc2 [4]: dose-dependent inhibition of Tyr15 phosphorylation
- Wee1 inhibitory activity against physiologically relevant substrate Cdc2 [5]: recapitulated the studies that used MBP as a substrate
- killing of cells in combination with Bendamustine [6]: enhanced killing of cells
- checkpoint override / premature entry into mitosis [7]: increased the number of mitotic cells
- sensitization to killing by gemcitabine, clonogenic survival ([8]; compound 1 μM for 3 h, colonies after 10 days (FIG. 2, FIG. 6)): sensitized cells to killing by gemcitabine
- sensitization of PANC1 cells to doxorubicin ([1]; 1 μM of the isomer (FIG. 7A)): sensitization by the bosutinib isomer was observed
- sensitization of PANC1 cells to cisplatin ([1]; 1 μM of the isomer (FIG. 7B)): sensitization by the bosutinib isomer was observed
- sensitization to gemcitabine at 1 uM ([1]; PANC1, 1 uM, MTS assay and clonogenic assays): sensitized cells to gemcitabine
- viability of gemcitabine treated PANC1 cells [1]: reduced the viability of gemcitabine treated cells in a dose-dependent manner
- number of kinases inhibited by more than 50% [9]: 84
- mitotic figures of gemcitabine-arrested cells [10]: abnormal mitotic figures from gemcitabine-arrested cells that were nearly indistinguishable from UCN-01 treatment

Compound: Nc1ccn([C@@H]2O[C@H](CO)[C@@H](O)C2(F)F)c(=O)n1 [gemcitabine, Gemcitabine]
- CC50 ([1]; Homo sapiens, PANC-1, read-out: LC50 of gemcitabine alone): > 30 nM

Compound: COc1cc(Nc2c(C#N)cnc3cc(OCCCN4CCN(C)CC4)c(OC)cc23)c(Cl)cc1Cl [Authentic bosutinib, Bosutinib]
- checkpoint override / premature entry into mitosis [7]: able to override the checkpoint and force cells into premature mitosis
- sensitization to killing by gemcitabine, clonogenic survival ([8]; compound 0.5 μM for 3 h, colonies after 10 days (FIG. 2)): not
- viability of gemcitabine treated PANC1 cells [1]: significantly reduced viability of cells treated with gemcitabine
- number of kinases inhibited by more than 50% [9]: 84/300
- sensitization of Mia-PaCa-II cells to gemcitabine [11]: sensitized to gemcitabine
- minimum effective concentration to sensitize cells to gemcitabine ([12]; PANC1, titration of sensitizer): 750 nM
- sensitization of PANC1 cells to gemcitabine [12]: sensitized cells to gemcitabine

Compound: CN[C@@H]1C[C@H]2O[C@@](C)([C@@H]1OC)n1c3ccccc3c3c4c(c5c6ccccc6n2c5c31)C(=O)N[C@@H]4O [UCN-01]
- checkpoint override / premature entry into mitosis [7]: forced cells to prematurely enter mitosis; also recorded: increased the number of cells that entered mitosis
- mitotic figures of gemcitabine-arrested cells [10]: severely perturbed mitotic figures
- sensitization of PANC1 cells to gemcitabine [12]: sensitized cells to gemcitabine
